Here are results for two molecules from patent US5041567A, “Antibacterial monic acid derivatives” (Beecham Group plc, priority 1982, dated 1991).

Values after ≈ are worked out from the molar mass of the structure shown. Where two headings read alike, the source gives them in different places.

The subject of one assay is M. suipneumoniae JF 435. The assay can be described thus: MIC against mycoplasma in vitro. The assay is classed as cell-based. Particulars: Mesomycoplasma hyopneumoniae, JF435, 144 h.
For assay [1], the system named is M. suipneumoniae J2206/183^b. The assay can be described thus: MIC against mycoplasma in vitro. Type of assay: cell-based. The settings on record: Mesomycoplasma hyopneumoniae, 144 h.
For assay [2], the system named is M. suipneumoniae PW/C/210. The assay can be described thus: MIC against mycoplasma in vitro. The settings on record: Mesomycoplasma hyopneumoniae, 144 h. The assay is classed as cell-based.
The test system of the next assay is M. suipneumoniae UCD 1. Kind of assay: MIC against mycoplasma in vitro. Type of assay: cell-based. The settings on record: Mesomycoplasma hyopneumoniae, UCD1, 144 h.
The subject of assay [3] is M. suipneumoniae NCTC 10110. The assay can be described thus: MIC against mycoplasma in vitro. Type of assay: cell-based. Particulars: Mesomycoplasma hyopneumoniae, NCTC10110, 144 h.
Assay [4] has as its system M. hyosynoviae ATCC 25591. Kind of assay: MIC against mycoplasma in vitro. Type of assay: cell-based. The settings on record: 144 h.
The next assay deals with M. bovis NCTC 10131. Kind of assay: microbe, parasite or virus in culture. Particulars: NCTC10131, 144 h. Type of assay: cell-based.
The subject of a further assay is M. dispar NCTC 10125. Kind of assay: MIC against mycoplasma in vitro. The assay is classed as cell-based. Particulars: 144 h.
In another assay the test system is M. gallisepticum S6. Kind of assay: MIC against mycoplasma in vitro. Type of assay: cell-based. Particulars: Mycoplasmoides gallisepticum, S6, 144 h.
Another assay relates to M. pneumoniae ATCC 15492. Kind of assay: MIC against mycoplasma in vitro. The assay is classed as cell-based. Particulars: Mycoplasmoides pneumoniae, ATCC15492, 144 h.
A further assay has as its system P. mirabilis 889. Kind of assay: MIC against human bacteria in vitro. The settings on record: Proteus mirabilis; P. mirabilis 889; 5% chocolated horse blood agar, 18 hours; read-out: MIC. Type of assay: cell-based.
The test system of assay [5] is Pasteurella multocida 1633. The assay can be described thus: MIC against human bacteria in vitro. The assay is classed as cell-based. Particulars: Pasteurella multocida 1633; 5% chocolated horse blood agar, 18 hours; read-out: MIC.
A further assay relates to Staph. aureus Oxford. Kind of assay: MIC against human bacteria in vitro. Type of assay: cell-based. Particulars: Staphylococcus aureus; Staph. aureus Oxford; 5% chocolated horse blood agar, 18 hours; read-out: MIC.
The test system of another assay is E. coli NCTC 10418. Kind of assay: MIC against veterinary bacteria in vitro. Particulars: Escherichia coli, NCTC10418, 18 h.
In the next assay the test system is E. coli E1. Kind of assay: MIC against veterinary bacteria in vitro. Particulars: Escherichia coli, E1, 18 h.
In another assay the test system is Bord. bronchiseptica B08. The assay can be described thus: MIC against veterinary bacteria in vitro. Particulars: Bordetella bronchiseptica, B08, 18 h.
The next assay relates to Bord. bronchiseptica B09. Kind of assay: MIC against veterinary bacteria in vitro. The settings on record: Bordetella bronchiseptica, B09, 18 h.
The subject of a further assay is Past. multocida PA1. Kind of assay: MIC against veterinary bacteria in vitro. The settings on record: Pasteurella multocida, PA1, 18 h.
A further assay deals with Past. haemolytica PA5. Kind of assay: MIC against veterinary bacteria in vitro. The settings on record: Mannheimia haemolytica, PA5, 18 h.
For assay [6], the system named is Staph. aureus B4 (pen. resistant). The assay can be described thus: MIC against veterinary bacteria in vitro. The settings on record: Staphylococcus aureus, 18 h.
Method: (§1) The activity of the compounds of the Examples against various veterinarily important bacteria, was assayed in vitro using two-fold serial dilutions in Diagnostic Sensitivity Test Agar inoculated with 10^4 organisms.
Assay [7] has as its system Strep. suis (group D) SPS11. The assay can be described thus: MIC against veterinary bacteria in vitro. The settings on record: Streptococcus suis, 18 h.
Method: as §1
Another assay concerns Strep. agalactiae SPA1. The assay can be described thus: MIC against veterinary bacteria in vitro. Particulars: Streptococcus agalactiae, SPA1, 18 h.
In a further assay the test system is B. subtilis ATCC 6633. The assay can be described thus: MIC against veterinary bacteria in vitro. The settings on record: Bacillus subtilis, ATCC6633, 18 h.

Method for B. subtilis ATCC 6633: as §1
Method for Bord. bronchiseptica B08: as §1
Method for Bord. bronchiseptica B09: as §1
Method for E. coli E1: as §1
Method for E. coli NCTC 10418: as §1
Method for Past. haemolytica PA5: as §1
Method for Past. multocida PA1: as §1
Method for Strep. agalactiae SPA1: as §1

As for `C/C(=C\c1ncc(-c2ccsc2)o1)C[C@@H]1OC[C@H](C[C@@H]2O[C@H]2[C@@H](C)[C@H](C)O)[C@@H](O)[C@H]1O` [Example 20, 5-(3-Thienyl)-2-(1-normon-2-yl) oxazole A], the MIC against M. suipneumoniae JF 435 worked out at 1 µg/mL (≈ 2.22 µM); in assay [1], 1 µg/mL (≈ 2.22 µM); in assay [2] (M. suipneumoniae PW/C/210, 6 days, 37° C., read-out: MIC), 0.5 µg/mL (≈ 1.11 µM); in the assay with M. suipneumoniae UCD 1, 1 µg/mL (≈ 2.22 µM); in assay [3], 1 µg/mL (≈ 2.22 µM); in assay [4] (M. hyosynoviae ATCC 25591, 6 days, 37° C., read-out: MIC), 0.5 µg/mL (≈ 1.11 µM). For the same molecule, the MIC was ≤ 0.01 µg/mL against M. bovis NCTC 10131; 0.25 µg/mL (≈ 0.556 µM) against M. dispar NCTC 10125; 2.5 µg/mL (≈ 5.56 µM) in the assay with M. gallisepticum S6; 0.5 µg/mL (≈ 1.11 µM) in the assay with M. pneumoniae ATCC 15492 (M. pneumoniae ATCC 15492, 6 days, 37° C., read-out: MIC); > 128 µg/mL with P. mirabilis 889; 4 µg/mL (≈ 8.9 µM) in assay [5]. For the same molecule, the MIC is 4 µg/mL (≈ 8.9 µM) in the assay on Staph. aureus Oxford; > 80 µg/mL in the assay on E. coli NCTC 10418; > 80 µg/mL in the assay with E. coli E1; 80 µg/mL (≈ 178 µM) against Bord. bronchiseptica B08; 10 µg/mL (≈ 22.2 µM) against Bord. bronchiseptica B09; 2.5 µg/mL (≈ 5.56 µM) against Past. multocida PA1. Also, the MIC is 80 µg/mL (≈ 178 µM) against Past. haemolytica PA5; 0.63 µg/mL (≈ 1.4 µM) in [6]; 40 µg/mL (≈ 89 µM) in assay [7]; 1.25 µg/mL (≈ 2.78 µM) against Strep. agalactiae SPA1; 10 µg/mL (≈ 22.2 µM) in the assay on B. subtilis ATCC 6633.
Regarding `C/C(=C\c1ncc(-c2ccc(C#N)cc2)o1)C[C@@H]1OC[C@H](C[C@@H]2O[C@H]2[C@@H](C)[C@H](C)O)[C@@H](O)[C@H]1O` [Example 21, 5-p-Cyanophenyl-2-(1-normon-2-yl) oxazole A], the MIC in the assay with M. suipneumoniae JF 435 (M. suipneumoniae JF 435, 6 days, 37° C., read-out: MIC) is 0.5 µg/mL (≈ 1.07 µM); in assay [1] (M. suipneumoniae J2206/183^b, 6 days, 37° C., read-out: MIC), 0.5 µg/mL (≈ 1.07 µM); in assay [2], 0.25 µg/mL (≈ 0.534 µM); with M. suipneumoniae UCD 1 it was 0.25 µg/mL (≈ 0.534 µM); in [3] (M. suipneumoniae NCTC 10110, 6 days, 37° C., read-out: MIC), 0.5 µg/mL (≈ 1.07 µM); in [4], 0.1 µg/mL (≈ 0.213 µM). The MIC against M. bovis NCTC 10131 was 0.025 µg/mL (≈ 0.0534 µM); in the assay with M. dispar NCTC 10125, 0.1 µg/mL (≈ 0.213 µM); against M. gallisepticum S6, 0.25 µg/mL (≈ 0.534 µM); in the assay with M. pneumoniae ATCC 15492 it was 0.25 µg/mL (≈ 0.534 µM); with P. mirabilis 889, > 128 µg/mL; in [5], 8 µg/mL (≈ 17.1 µM). In addition, the MIC was 4 µg/mL (≈ 8.54 µM) with Staph. aureus Oxford; > 80 µg/mL against E. coli NCTC 10418; > 80 µg/mL in the assay on E. coli E1; 40 µg/mL (≈ 85.4 µM) in the assay on Bord. bronchiseptica B08; 10 µg/mL (≈ 21.3 µM) against Bord. bronchiseptica B09; 2.5 µg/mL (≈ 5.34 µM) against Past. multocida PA1. Further, the MIC with Past. haemolytica PA5 worked out at 20 µg/mL (≈ 42.7 µM); in assay [6], 1.25 µg/mL (≈ 2.67 µM); in [7], 10 µg/mL (≈ 21.3 µM); in the assay on Strep. agalactiae SPA1, 1.25 µg/mL (≈ 2.67 µM); against B. subtilis ATCC 6633, 2.5 µg/mL (≈ 5.34 µM).
